Measurements from patent US11384066B1, “Heterocyclic compounds useful as aurora a selective inhibitors” (Jacobio Pharmaceuticals Co., Ltd., priority 2020, dated 2022).

Columns and labels:
Aurora B = Aurora B (Homo sapiens (Human), UniProt Q96GD4); test: Aurora B kinase assay (mobility shift assay); assay type: biochemical; settings: ratio of Aurora B IC50 to Aurora A IC50
Method: (§1) Example A: Evaluation of Aurora a and Aurora B Inhibitory Effect—Kinase Assay
(§2) The inhibitory activities of a test compound against Aurora A and Aurora B were measured according to the following method.
(§3) The IC50 value of Aurora A and Aurora B kinase was performed by Sundia MediTech Co. Ltd. using Mobility shift assay.
(§4) • (1) Prepare a 1× kinase buffer [50 mM 4-(2-hydroxyethyl)-1-piperazineethanesulfonic acid (HEPES), PH 7.5, 0.01% Brij-35, 10 mM MgCl2, 2 mM dithiothreitol (DTT)]. • (2) Prepare compound:
(§5) The testing compound was dissolved with DMSO. The testing compound was diluted up to 100× final concentration in a 384-well plate. Transfer 250 nL of the compound dilution to a 384-well assay plate using Echo 550. 100% DMSO of 250 nL was added to the negative control well and the positive control well. • (3) Prepare a 2.5× enzyme solution using the above 1× kinase buffer. • (4) Add 10 μL of the 2.5× enzyme solution to the compound well and the positive control well of the 384-well assay plate. Add 10 μL of the 1× kinase buffer to the negative control well. • (5) The 384-well plate was centrifuged at 1000 rpm for 30 seconds and incubated at room temperature for 10 min. • (6) A mixture of ATP and Kinase substrate 21 with a final concentration of 25/15× was prepared by the 1× kinase buffer. • (7) Add 15 μL of the mixture of 25/15×ATP and kinase substrate solution 21 to start reaction. • (8) The 384-well plate was centrifuged at 1000 rpm for 30 seconds and incubated at room temperature. • (9) 30 μL of the stop and detection buffer was added to stop the kinase reaction and centrifuged at 1000 rpm for 30 seconds. • (10) Collect data on Caliper EZ ReaderII. Data Analysis:
(§6) Conversion %_sample is conversion rate data of samples. Conversion %_min is mean value of negative control (conversion rate data without enzyme activation). Conversion %_max is mean positive control (conversion rate data without compound).
(§7) The log of concentration is on the X axis, and the percentage inhibition is on the Y axis. Fit the Quantitative effect curves with log (inhibitor) vs. response—Variable slope in GraphPad Prism5 obtain IC50 values. Equation used is Y=Bottom+(Top−Bottom)/(1+10^((Log IC50−X)*HillSlope)).

Aurora A = Aurora A (Homo sapiens (Human), UniProt O14965); test: Aurora A kinase assay (mobility shift assay); assay type: biochemical
Method: as §1, §2, §3, §4, §5, §6, §7

Aurora B, sequence (Q96GD4 whole entry): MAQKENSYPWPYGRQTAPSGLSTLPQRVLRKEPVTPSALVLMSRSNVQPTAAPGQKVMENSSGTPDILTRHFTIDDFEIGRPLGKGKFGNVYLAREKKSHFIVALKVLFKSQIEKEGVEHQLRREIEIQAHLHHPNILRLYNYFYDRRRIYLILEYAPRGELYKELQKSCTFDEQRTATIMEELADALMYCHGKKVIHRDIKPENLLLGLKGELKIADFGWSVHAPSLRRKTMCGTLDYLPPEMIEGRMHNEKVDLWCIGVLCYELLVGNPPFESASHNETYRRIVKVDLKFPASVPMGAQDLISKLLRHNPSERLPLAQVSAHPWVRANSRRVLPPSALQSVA
Aurora A, sequence (O14965 whole entry): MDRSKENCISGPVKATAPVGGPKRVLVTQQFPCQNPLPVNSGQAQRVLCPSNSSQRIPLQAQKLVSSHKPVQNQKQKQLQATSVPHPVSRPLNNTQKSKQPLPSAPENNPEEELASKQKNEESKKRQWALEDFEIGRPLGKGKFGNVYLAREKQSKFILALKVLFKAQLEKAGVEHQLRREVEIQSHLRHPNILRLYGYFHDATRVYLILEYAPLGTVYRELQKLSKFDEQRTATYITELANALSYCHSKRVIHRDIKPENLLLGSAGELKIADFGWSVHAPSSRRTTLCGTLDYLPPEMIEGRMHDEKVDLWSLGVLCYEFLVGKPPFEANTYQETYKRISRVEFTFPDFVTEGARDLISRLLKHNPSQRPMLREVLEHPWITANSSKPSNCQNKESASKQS

Row | IC50 Ratio Aur B/Aur A (Aurora B) | IC50 (Aurora A) | Structure (SMILES)
1 | 523 | 0.88 nM | Cc1cc(Nc2cncc(C[C@@]3(C(=O)O)CCN(Cc4cccc(Cl)c4F)[C@H](C)C3)n2)n[nH]1 (stereo in doubt) [Example 45, (2R,4R)-1-(3-chloro-2-fluorobenzyl)-2-methyl-4-((6-((5-methyl-1H-pyrazol-3-yl)amino)pyrazin-2-yl)methyl)piperidine-4-carboxylic acid]
2 | 2288 | 1.3 nM | Cc1cc(Nc2ccc(F)c(CC3(C(=O)O)CCN(Cc4cccc(Cl)c4F)CC3)n2)n[nH]1 [Example 1, 1-(3-chloro-2-fluorobenzyl)-4-((3-fluoro-6-((5-methyl-1H-pyrazol-3-yl)amino)pyridin-2-yl)methyl)piperidine-4-carboxylic acid]
3 | 1236 | 2.9 nM | CCC1CC(Cc2nc(Nc3cc(C)[nH]n3)ccc2F)(C(=O)O)CCN1Cc1cccc(Cl)c1F (centres unmarked) [Example 2, 1-(3-chloro-2-fluorobenzyl)-2-ethyl-4-((3-fluoro-6-((5-methyl-1H-pyrazol-3-yl)amino)pyridin-2-yl)methyl)piperidine-4-carboxylic acid]
4 | 979 | 1 nM | Cc1cc(Nc2ccc(C)c(C[C@@]3(C(=O)O)CCN(Cc4cccc(Cl)c4F)[C@H](C)C3)n2)n[nH]1 [Example 10, (2R,4R)-1-(3-chloro-2-fluorobenzyl)-2-methyl-4-((3-methyl-6-((5-methyl-1H-pyrazol-3-yl)amino)pyridin-2-yl)methyl) piperidine-4-carboxylic acid]
5 | 2264 | 0.64 nM | Cc1cc(Nc2ccc(Cl)c(C[C@@]3(C(=O)O)CCN(Cc4cccc(Cl)c4F)[C@H](C)C3)n2)n[nH]1 [Example 11, (2R,4R)-1-(3-chloro-2-fluorobenzyl)-4-((3-chloro-6-((5-methyl-1H-pyrazol-3-yl)amino)pyridin-2-yl)methyl)-2-methylpiperidine-4-carboxylic acid]
6 | 2560 | 2.4 nM | Cc1cc(Nc2ccc(F)c(C[C@@]3(C(=O)O)CCN(Cc4c(F)cccc4F)[C@H](C)C3)n2)n[nH]1 [Example 12, (2R,4R)-1-(2,6-difluorobenzyl)-4-((3-fluoro-6-((5-methyl-1H-pyrazol-3-yl)amino)pyridin-2-yl)methyl)-2-methylpiperidine-4-carboxylic acid]
7 | 1755 | 0.55 nM | Cc1cc(Nc2ccc(F)c(C[C@@]3(C(=O)O)CCN(Cc4cccc(F)c4F)[C@H](C)C3)n2)n[nH]1 [Example 15, (2R,4R)-1-(2,3-difluorobenzyl)-4-((3-fluoro-6-((5-methyl-1H-pyrazol-3-yl)amino)pyridin-2-yl)methyl)-2-methylpiperidine-4-carboxylic acid]
8 | 1812 | 1.7 nM | Cc1cc(Nc2ccc(F)c(C[C@@]3(C(=O)O)CCN(Cc4cccc(C)c4F)[C@H](C)C3)n2)n[nH]1 [Example 16, (2R,4R)-1-(2-fluoro-3-methylbenzyl)-4-((3-fluoro-6-((5-methyl-1H-pyrazol-3-yl)amino)pyridin-2-yl)methyl)-2-methylpiperidine-4-carboxylic acid]
9 | 2974 | 3.2 nM | Cc1cc(Nc2ccc(F)c(C[C@@]3(C(=O)O)CCN(Cc4c(Cl)cccc4Cl)[C@H](C)C3)n2)n[nH]1 [Example 17, (2R,4R)-1-(2,6-dichlorobenzyl)-4-((3-fluoro-6-((5-methyl-1H-pyrazol-3-yl)amino)pyridin-2-yl)methyl)-2-methylpiperidine-4-carboxylic acid]
10 | 1789 | 3.1 nM | Cc1cc(Nc2ccc(F)c(C[C@@]3(C(=O)O)CCN(Cc4cccc(C(F)(F)F)c4)[C@H](C)C3)n2)n[nH]1 [Example 21, (2R,4R)-4-((3-fluoro-6-((5-methyl-1H-pyrazol-3-yl)amino)pyridin-2-yl)methyl)-2-methyl-1-(3-(trifluoromethyl)benzyl) piperidine-4-carboxylic acid]
